Inconclusive results are not listed.
System: Clone20 osteoblast Shn3 3'UTR firefly luciferase, 24 h
Assay: Shn3 3'UTR reporter inhibitors, dose response, cell-based, Clone20 osteoblasts, luminescence, dry powder, set 2 (AID 743417)

## CCCC(=O)NC(c1ccc(N(C)C)cc1)c1ccc2cccnc2c1O (stereo not drawn)
  AC50: 916 nM

## Cc1nn(Cc2ccc(Cl)cc2)c(C)c1NC(=O)c1cc(C(C)C)on1
  AC50: 6200 nM

## Cc1sc2ncnc(N3CCN(S(=O)(=O)c4ccccc4)CC3)c2c1C
  AC50: 2300 nM

## CN(Cc1ccc(OC(F)F)cc1)C(=O)c1cccc(S(=O)(=O)N2CCN(c3ccccc3)CC2)c1
  AC50: 2590 nM

## CCC(NC(=O)Nc1nnc(C(F)(F)F)s1)(C(F)(F)F)C(F)(F)F
  AC50: 4150 nM

## CCN(CC)c1ccc2c(c1)oc(=O)c1c(Cl)cc(=O)oc12
  AC50: 2220 nM

## CCOC(=O)c1c2c(n(-c3ccc(OC)cc3)c1C)C(=O)C(=O)c1ccccc1-2
  AC50: 3150 nM

## COc1ccc(C(=O)NC(=S)NNC(=O)c2ccc3ccccc3n2)cc1
  AC50: 4320 nM

## C=CCn1c(NCCc2ccccc2)nc2c1c(=O)n(C)c(=O)n2C
  AC50: 1830 nM

## C/C(Cl)=C\Cn1c(NCCc2ccccc2)nc2c1c(=O)n(C)c(=O)n2C
  AC50: 283 nM

## CCOc1ccc(S(=O)(=O)N(C)c2ccc(OCC(=O)Nc3nc4ccccc4s3)cc2)cc1
  AC50: 2820 nM

## O=C(Cn1cc(C(=O)c2ccco2)c2ccccc21)Nc1ccccc1F
  AC50: 2600 nM

## O=C(OCCN1C(=O)c2cccc3c(N4CCOCC4)ccc(c23)C1=O)c1ccccc1Cl
  AC50: 3060 nM

## CC(N)C(=O)NC1C2C(=C(O)CC(O)C2O)C(=O)OC1(C)C(Cl)Cl (stereo not drawn)
  AC50: 1850 nM

## CC(C)(C)C(=O)NC(=S)NNC(=O)c1sc2ccccc2c1Cl
  AC50: 19100 nM

## O=C1CC(Sc2nnnn2-c2ccccc2)C(=O)N1c1cccc(Cl)c1 (stereo not drawn)
  AC50: 8530 nM

## CCOc1ccccc1NC(=O)c1nc(S(=O)(=O)Cc2ccccc2)ncc1Cl
  AC50: 376 nM

## COc1ccccc1NS(=O)(=O)c1cccc(C(=O)NC2CCN(Cc3ccccc3)CC2)c1
  AC50: 1950 nM

## Cc1cccc(CS(=O)(=O)c2ncc(Cl)c(C(=O)Nc3ccc(F)cc3)n2)c1
  AC50: 550 nM

## O=C(Nc1ccc(Cl)c(Cl)c1)c1cccc(S(=O)(=O)NCc2cccnc2)c1
  AC50: 5390 nM

## COc1cccc(CN(C)C(=O)c2cc(COc3ccc4ncccc4c3)on2)c1
  AC50: 1490 nM

## O=C(c1nnsc1S(=O)(=O)c1ccc(Cl)cc1)N1CCOCC1
  AC50: 7740 nM

## c1ccc(CNc2c(-c3cccc(SC4CCCCC4)c3)nc3ccccn23)cc1
  AC50: 3460 nM

## O=C(NCc1ccccc1)c1nc(S(=O)(=O)Cc2ccccc2)ncc1Cl
  AC50: 1190 nM

## Cn1cc(CN(CCO)Cc2cccs2)c(-c2cccc(Cl)c2)n1
  AC50: 3250 nM

## CC1(Cc2ccc(OC(F)(F)F)cc2)C(=O)Nc2c(Cl)ccc(Cl)c21 (stereo not drawn)
  AC50: 25700 nM

## CCOC(=O)c1cnc(-n2nc(C)cc2C)nc1NC1CCCC1
  AC50: 4400 nM

## Cc1c(CCCl)c(Cl)n2c(nc3ccccc32)c1C#N
  AC50: 912 nM

## Cn1c(SCc2ccc(F)cc2Cl)nc2ccccc2c1=O
  AC50: 8650 nM

## COCOCCn1cc(CN2CCS(=O)(=O)N(Cc3ccc(-c4ccc(Cl)c(Cl)c4)cc3)C(C(C)C)C2=O)nn1 (stereo not drawn)
  AC50: 1350 nM

## Fc1ccc2[nH]c3c(N4CCc5ccccc5C4)ncnc3c2c1
  AC50: 466 nM

## CCCC(=O)NC(c1cccc([N+](=O)[O-])c1)c1ccc2cccnc2c1O (stereo not drawn)
  AC50: 1750 nM

## O=C(Nc1ccc(Cc2ccncc2)cc1)c1ccc([N+](=O)[O-])o1
  AC50: 2710 nM

## COc1c(CC=C(C)C)cc(C2CC(=O)c3c(O)cc(O)cc3O2)cc1CC=C(C)C (stereo not drawn)
  AC50: 5420 nM

## CCCCN1CC(COCc2ccccc2)Oc2cccc(Oc3ccc(C)cc3)c2S1(=O)=O (stereo not drawn)
  AC50: 10700 nM

## COc1ccc(NS(=O)(=O)c2ccc(N3CCCCC3)c(N)c2)cc1
  AC50: 824 nM

## CCOC(=O)C1(CCOc2ccccc2)CCN(Cc2ccc(OC)c(COC)c2)CC1
  AC50: 3870 nM

## O=C1CSc2ccc(C(=O)Nc3cccc(S(=O)(=O)Nc4ccc(Br)cc4)c3)cc2N1
  AC50: 3080 nM

## Cc1ccc(S(=O)(=O)NCc2ccncc2)cc1C
  AC50: 585 nM

## CC(=O)NC(c1ccc(Cl)cc1Cl)c1ccc2cccnc2c1O (stereo not drawn)
  AC50: 465 nM

## COc1ccccc1N1CCN(C(=O)C2CCCN(S(=O)(=O)c3ccc4c(c3)CCCN4C(C)=O)C2)CC1 (stereo not drawn)
  AC50: 2680 nM

## CC(NC(=O)c1cc(COc2ccc3ncccc3c2)on1)c1ccc(F)cc1 (stereo not drawn)
  AC50: 2280 nM

## CC1=NNC(=O)/C1=C\c1cn(-c2ccccc2)nc1-c1ccccc1
  AC50: 8420 nM

— PubChem BioAssay AID743417 (Broad Institute, 2014)
